Measured values reported in patent publication EP1767091A2, “Biocidal compositions” (Clariant Produkte (Deutschland) GmbH, priority 2005, dated 2007).

What was measured:
[1] = Solubility of biocidal active substances in various solvents, by stepwise concentration of a 10 wt% starting solution at 25°C; type: physicochemical
Description: Die nachfolgenden Beispiele dienen der näheren Erläuterung der Erfindung. Alle Prozentangaben sind Gewichtsprozente, sofern nicht anders angegeben. Tabelle 1: Löslichkeiten von bioziden Wirksubstanzen in verschiedenen Lösemitteln
Die Löslichkeiten wurden durch schrittweises Aufkonzentrieren einer Startlösung bei 10 Gew.-% bei 25°C ermittelt. Tabelle 2: Lagerstabilität von bioziden Wirksubstanzen in verschiedenen Lösemitteln bei -5°C, +20°C und +50°C bei 14 Tagen Lagerdauer

[2] = in Tierversuchen; cited from earlier work
[3] = solvent TEGDME / DPG 1:2,7, weight percent
[4] = solvent Dipropylenglykol (DPG), weight percent
[5] = solvent N-Methylpyrrolidon (NMP), weight percent
[6] = solvent Tetraethylenglykoldimethylether (TEGDME), weight percent

In the case of `N#CCCC(Br)(C#N)CBr` (stereo not shown) [Beispiel 15, 1,2-Dibromo-2,4-dicyanobutan], the “Löslichkeit [25°C]” value [1, 3] is reported as 34%.

For `O=[N+]([O-])C(Br)(CO)CO` [4(V), 2-Bromo-2-nitro-1,3-propandiol], the “Löslichkeit [25°C]” value [1, 4] was 26%.

In the case of `N#CCCC(Br)(C#N)CBr` (stereo not shown) [16(V), 1,2-Dibromo-2,4-dicyanobutan], the “Löslichkeit [25°C]” value [1, 4] is reported as 21%.

With `O=[N+]([O-])C(Br)(CO)CO` [1 (V), 2-Bromo-2-nitro-1,3-propandiol] the “Löslichkeit [25°C]” value [1, 5] was 51%.

With `CCCCNC(=O)OCC#CI` [Beispiel 6, 3-Jod-2-propinyl-butylcarbamat] the “Löslichkeit [25°C]” value [1, 6] was 52%.

In the case of `CN1CCCC1=O` [N-Methyl-2-Pyrrolidon], the “fruchtschädigende Wirkung” value [2] is listed as “fruchtschädigende Wirkung”.

With `CCCCNC(=O)OCC#CI` [Beispiel 7, 3-Jod-2-propinyl-butylcarbamat] the “Löslichkeit [25°C]” value [1, 3] was 50%.

For `O=[N+]([O-])C(Br)(CO)CO` [Beispiel 2, 2-Bromo-2-nitro-1,3-propandiol], the “Löslichkeit [25°C]” value [1, 6] was 56%.

For `N#CCCC(Br)(C#N)CBr` (stereo not shown) [Beispiel 14, 1,2-Dibromo-2,4-dicyanobutan], the “Löslichkeit [25°C]” value [1, 6] was 47%.

With `N#CCCC(Br)(C#N)CBr` (stereo not shown) [13(V), 1,2-Dibromo-2,4-dicyanobutan] the “Löslichkeit [25°C]” value [1, 5] was 39%.

In the case of `CCCCNC(=O)OCC#CI` [8(V), 3-Jod-2-propinyl-butylcarbamat], the “Löslichkeit [25°C]” value [1, 4] is reported as 34%.

With `O=[N+]([O-])C(Br)(CO)CO` [Beispiel 3, 2-Bromo-2-nitro-1,3-propandiol] the “Löslichkeit [25°C]” value [1, 3] was 39%.

For `CCCCNC(=O)OCC#CI` [5(V), 3-Jod-2-propinyl-butylcarbamat], the “Löslichkeit [25°C]” value [1, 5] was 45%.
